“Also recorded” adds a separate entry of the source. Where two headings read alike, the source gives them in different places.
Key:
[1] = biological target: T1, DC-SIGN CRD (Homo sapiens, UniProt Q9NNX6); assay: Surface plasmon resonance (SPR) binding to immobilised DC-SIGN CRD
T1 construct: human DC-SIGN (Lys62-Ala404, from R§D Systems); purchased R&D Systems ('R§D Systems' [sic])
T1 sequence (Q9NNX6 62-404): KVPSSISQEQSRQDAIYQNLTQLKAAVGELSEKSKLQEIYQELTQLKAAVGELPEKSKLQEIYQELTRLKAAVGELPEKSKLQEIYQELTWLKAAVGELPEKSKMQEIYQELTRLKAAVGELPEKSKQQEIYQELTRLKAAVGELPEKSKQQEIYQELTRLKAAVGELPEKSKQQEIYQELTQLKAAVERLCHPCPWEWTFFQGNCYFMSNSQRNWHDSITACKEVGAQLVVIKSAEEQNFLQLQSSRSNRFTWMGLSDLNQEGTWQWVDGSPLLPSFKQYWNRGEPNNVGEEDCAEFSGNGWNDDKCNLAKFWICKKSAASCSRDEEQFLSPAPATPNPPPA
Protocol: SPR experiments were performed using a Biacore 3000. […] Biosensor assays were performed with HEPES-buffered saline (10 mM HEPES, 150 mM sodium chloride, pH 7.4) containing 0.005% surfactant P20 and 5 mM CaCl2 as a running buffer. All binding experiments were carried out at 25° C. with a constant flow rate of 20 μl/min. The different compounds dissolved in the running buffer (0.39 to 50 μM) were injected for 3 min, followed by a dissociation phase of 3 min. The sensor chip surface was regenerated after each experiment by injecting 10 μL of EDTA 0.5 M pH 8.0. A simple channel activated by EDC/NHS and deactivated with ethanolamine was used as control. The kinetic parameters were calculated using the BlAeval 4.1 software. Analysis was performed using the simple Langmuir binding model with separate ka/kd (kon/koff). The specific binding profiles were obtained after subtracting the response signal from the control channel and from blank-buffer injection. The fitting to each model was judged by the chi square value and randomness of residue distribution compared to the theoretical model (Langmuir binding 1:1).
The binding affinity of mannoside derivatives for the carbohydrate recognition domain (CRD) of DC-SIGN was assessed by surface plasmon resonance (SPR).
A CM5 sensor chip was functionalized with the DC-SIGN CRD, and increasing concentrations of the various compounds, mannan as a positive control and octaethyleneglycol (OEG) as a negative control, were injected over the chip surface. The association (kon) and dissociation (koff) rate constants and the resulting dissociation equilibrium constant (Kd=koff/kon) for each assessed compound were determined (see Table 1 hereunder).

[2] = Hydrodynamic diameter of micelles (Zetasizer Nano ZS); type: physicochemical; details: in water at 0.5 mg/ml
Protocol: DiManinsatC24 was prepared according a procedure similar to that used for the preparation of TriDiManC24 except that: • pentacosanoic acid was replaced by 10,12-pentacosadiynoic acid, and • before the coupling with 10,12-pentacosadiynoic acid, the benzyl groups of compound 33 were replaced by acetyl group so as to provide compound 108 (as illustrated in FIG. 3E). ^1H NMR δ(ppm) (MeOD, 400 MHz) 4.87 (s, 3H), 4.73 (s, 3H), 3.64-3.50 (m, 14H), 3.46-3.20 (m, 76H), 2.97-2.93 (m, 6H), 2.33 (t, 6H, J=6.8 Hz), 2.09-1.96 (m, 6H), 1.08-1.05 (m, 32H), 0.66 (t, 3H, J=6.8 Hz). ^13C NMR δ (ppm) (MeOD, 100 MHz) 173.7, 168.8, 104.2, 101.2, 80.6, 80.4, 75.1, 74.7, 72.5, 72.2, 72.1, 71.9, 71.8, 71.7, 71.6, 71.4, 69.4, 69.1, 68.9, 68.7, 68.6, 68.0, 63.2, 63.1, 42.2, 37.0, 34.8, 33.7, 33.1, 30.8, 30.7, 30.6, 30.5, 30.4, 30.2, 29.5, 28.1, 27.0, 26.0, 23.7, 19.7, 14.4. IR (neat film, cm^−1): 3353, 2924, 1716, 1636, 1350, 1182, 1095, 1035, 1009, 837, 669. • Determination of critical micelle concentrations (CMCs) and size of particles. The hydrodynamic diameters of micelles of glycolipids were measured in water using a Zetasizer Nano ZS system (Malvern Instruments). The CMCs were measured using pyrene as an extrinsic fluorescent probe and were carried out as described (Perino et al., 2011). Briefly, a range of glycolipid samples were dissolved in water (1 ml), with concentrations ranging from 1.0 to 0.001 mg/ml. A stock solution of pyrene (1 mM) was prepared in dimethyl sulfoxyde and was added to each sample. Fluorescent emission of pyrene was measured at 25° C. using a Fluorolog spectrofluorometer (Jobin Yvon, Horiba). The intensities of fluorescence emission were determined at 374 nm (I374) and at 383 nm (I383), with an excitation at a 339 nm wavelength. The ratios I374/I383 were calculated and plotted against the glycolipid concentration. The CMC value was determined at the intersection of the two straight lines.

[3] = test system: HIV-1 R5; assay: HIV-1 R5 trans-infection of MAGI-CCR5 cells mediated by DCs; type: cell-based; details: for inhibition of HIV-1 trans-infection (in words): HIV-1 R5 where stated
Protocol: ManC1, […] (comparative) and compounds of the invention (ManC24, ManC17, TriManC24, TriDiManC24, TriManinsatC24 and ManinsatC24) were serially diluted in water. Human DCs (1×10^5 in 200 μl ) were pre-treated with different concentrations of compounds, or mannan (Sigma) or culture medium alone, in RPMI 1640 medium containing 10% FBS for 45 min at 37° C., prior infection with HIV-1 (100 ng of p24Gag) for 3 h. Excess free virus and molecules were removed by three washes. DCs were then cocultured with MAGI -CCR5 cells (1×10^5) at 37° C. plated in a 48-well plate. After two days, viral infection of MAGI-CCR5 cells was quantitated following beta-galactosidase assays and enumerating blue cells by light microscopy.
The IC50 were determined by serial dilution of each compound. The trans-infection assays were repeated a minimum of three times, and the IC50 determined using KaleidaGraph.
To investigate the ability of the compounds of the invention to inhibit HIV-1 trans infection, we chose to infect human DCs in order to best mimic in vivo conditions. Human DCs were exposed to different compounds (namely, Mannan (control), ManC1 (comparative), ManC11 (comparative), ManC17, ManC24, TriManC24, TriDiManC24, ManinsatC24 and TriManinsatC24) for 45 min at 37° C., before inoculation with HIV-1 (strains R5 and X4) for 3 hours. After extensive washings to remove unbound virions and mannosides, DCs were then co-cultured with MAGI-CCR5 cells. This procedure allows precise quantification of HIV-1 replication in reporter MAGI-CCR5 cells by detection of beta-galactosidase activity. These cells express an integrated copy of the HIV long terminal repeat (LTR) fused to the beta-galactosidase reporter gene, and express the CD4 receptor and the CCR5 and CXCR4 co-receptors, required for entry of HIV-1 R5 and X4 respectively. Upon viral entry leading to viral Tat expression and activation of the LTR, these cells permit quantification of HIV trans-infection after two days.

[4] = Human immunodeficiency virus 1, MAGI-CCR5, read-out: IC50 of HIV-1 trans-infection

Kd ([1]; Kd=koff/kon) [µM]	IC50 ([3]; Human immunodeficiency virus 1, MAGI-CCR5, HIV-1 R5, read-out: IC50 of HIV-1 trans-infection) [µM]	SMILES	binding to DC-SIGN CRD (in words) [1]	Kon (M^−1 · s^−1) ([1]; 25° C., Langmuir 1:1)	hydrodynamic diameter of micelles [2] [nm]	inhibition of HIV-1 trans-infection (in words) [3]	IC50 [3, 4] [µM]	koff ([1]; 25° C., Langmuir 1:1) [s⁻¹]	kon ([1]; 25° C., Langmuir 1:1) [M⁻¹ s⁻¹]	KD (μM) ([1]; Kd=koff/kon)	residual level of trans-infection ([3]; HIV-1 R5, highest concentrations, relative to medium alone) [%]
		CCCCCCCCCCCCCCCCCC(=O)NCCOCCOCCOCC(=O)NCCOCCOCCOCCOC1OC(CO)C(O)C(O)C1O (stereo not shown) [ManC17]	bound with a low affinity	Low binding	17	reduced trans-infection in a dose -dependent manner; also recorded: able to inhibit trans-infection to a similar extent; also recorded: inhibited in a dose -dependent manner	120				
		CCCCCCCCCCCCCCCCCCCCCCCCC(=O)NCCOCCOCCOCC(=O)NCCOCCOCCOCCOC1OC(CO)C(O)C(O)C1O (stereo not shown) [ManC24]			17	reduced trans-infection in a dose -dependent manner; also recorded: able to inhibit trans-infection to a similar extent; also recorded: inhibited in a dose -dependent manner	120	9e-05	273	sub-micromolar range	
2.57	61	CCCCCCCCCCCCC#CC#CCCCCCCCCC(=O)NCCOCCOCCOCC(=O)NCCOCCOCCOCCO[C@H]1O[C@H](CO)[C@@H](O)[C@H](O)[C@@H]1O [ManinsatC24]						0.00138	538		15
